Measured values from patent US20200069592A1, “HSP90 INHIBITOR ORAL FORMULATIONS AND RELATED METHODS” (Samus Therapeutics, Inc., priority 2017, published 2020).

What was measured:
[1] = Plasma pharmacokinetics after single oral dose in ORA-Plus or SyrSpend SF (Example 6), LC-MS/MS; format: in vivo, Sprague Dawley rats; conditions: for AUC % Extrap / Cl_F / Vz_F / AUC(0-inf) / AUC(0-t) / Cmax / Tmax / half-life: rat plasma; for % AUC0-last test vs reference: rats, ratio of group averages; for AUC(0-inf) / AUC(0-t) / Cmax / Tmax / half-life: female, rat, plasma, po
[2] = Particle size distribution (Cilas 1180) of as-received and jet milled API (Example 8); format: physicochemical
Procedure: Compound 2 API ‘as-received’ (Lots #2064-118-8, #2064-146-9, and # BPR-WS 1828-194D(2HCl)—B1-19) were analyzed for PSD on a Cilas 1180 particle size analyzer. Subsequently jet milled API batches B # L0441-20-JM51mmP1, B # L0441-20-JM51mmP2, B # L0441-20-JM51mmP3, and B # L0441-84-JM146mmP1 were also analyzed for PSD Approximately 50 mg Compound 2-2HCl was dispersed into 40 mL 0.2% (w/w) span 80 in n-hexanes (dispersant) and allowed to mix for 60 minutes. API was kept suspended in dispersant via stirring and sonication during test.
A jet milling study was performed on a batch of Compound 2 2HCl with jet mill Fluid Energy Asset #00170 outfitted with a 51 mm collection loop. Batches B # L0441-29-JM51mmP1, B # L0441-29-JM51mmP2, and B # L0441-29-JM51mmP3 were created from ˜10 g of Compound 2 lot # BPR-WS1828-194D(2HCl)-B1-19 subjected to 3 passes. Jet mill settings for grinder nozzle and pusher nozzle as follows: Pass 1 grinder nozzle=60 psi & pusher nozzle=80 psi, Pass 2 and 3 grinder nozzle=50 psi & pusher nozzle=70 psi.
After successfully jet milling on the R&D scale, B # L0441-84-JM146mmP1 was created from Compound 2-2HCl lot # BPR-17-87-B1-21d which was processed with a single pass to confirm GMP scale up conditions in the R&D laboratory by passing 85 g through the GMP jet mill Jet-O-Mizer Asset #01 16 Model 0101 outfitted with 146 mm collection loop using a standard nylon 4×48-inch collection sock inside a PTFE 4×48-inch sock to minimize fines loss. The pressure settings for the grinder and pusher nozzle were: Grinder nozzle 60 psi, Pusher nozzle 70 psi.

[3] = Solubility of the 2HCl salt in dosing vehicle (Example 6); format: physicochemical; conditions: SyrSpend SF Solution (dosing vehicle), aqueous with cosolvent or surfactant or cyclodextrin; pH ~2.5
Description: Dose levels of Compound 2 were based on the free base, not the salt. […] Dosage forms of Compound 2 2HCl in ORA-Plus® and in SyrSpend® SF Cherry appeared to be suspension instead of clear solutions. Final physical appearance matched that of the vehicle used. Due to opaque properties of vehicles, full solubility could not be confirmed. However, resultant dosing material appeared homogenous. Dosage forms of Compound 2 2HCl in ORA-Plus® and in SyrSpend® SF Cherry were made fresh immediately prior to use.

[4] = G3: 2HCl, 24 mg/kg single oral dose, ORA-plus
[5] = G4: 2HCl, 48 mg/kg single oral dose, ORA-plus
[6] = G9: 2HCl, 24 mg/kg single oral dose, SyrSpend
[7] = G10: 2HCl, 48 mg/kg single oral dose, SyrSpend, n = 2
[8] = G11: 2HCl, 60 mg/kg single oral dose, SyrSpend, n = 4
[9] = Sprague Dawley, 24 mg/kg, G3: 2HCl, 24 mg/kg single oral dose, ORA-plus
[10] = Sprague Dawley, 24 mg/kg, G9: 2HCl, 24 mg/kg single oral dose, SyrSpend
[11] = Sprague-Dawley, 24 mg/kg, G9: 2HCl, 24 mg/kg single oral dose, SyrSpend
[12] = Sprague-Dawley, 48 mg/kg, G4: 2HCl, 48 mg/kg single oral dose, ORA-plus
[13] = Sprague-Dawley, 48 mg/kg, G10: 2HCl, 48 mg/kg single oral dose, SyrSpend
[14] = Sprague-Dawley, 60 mg/kg, G11: 2HCl, 60 mg/kg single oral dose, SyrSpend
[15] = Lot 2064-118-8, API as received
[16] = Lot 2064-146-9, API as received
[17] = Lot BPR-17-87-B1-21d, API as received
[18] = Lot BPR-17-87-B1-21d, jet milled batch B#L0441-84-JM146mmP1
[19] = Lot BPR-WS1828-194D(2HCL)-B1-19, API as received
[20] = Lot BPR-WS1828-194D(2HCL)-B1-19, jet milled batch B#L0441-20-JM51mmP1
[21] = Lot BPR-WS1828-194D(2HCL)-B1-19, jet milled batch B#L0441-20-JM51mmP2
[22] = Lot BPR-WS1828-194D(2HCL)-B1-19, jet milled batch B#L0441-20-JM51mmP3

**Q.** With `CC(C)(C)CNCCn1c(Sc2cc3c(cc2I)OCO3)nc2c(N)ncnc21` [Compound 2 2HCl] as the compound, how does the “AUC % Extrap” value [1, 4] read?
**A.** 4.00 ± 1.84%

**Q.** What about the Cl_F [1, 4] of the same compound?
**A.** 357.3 ± 155 mL/min/kg

**Q.** What about the Vz_F [1, 4] of the same compound?
**A.** 81.00 ± 80.22 L/kg

**Q.** What about the “AUC % Extrap” value [1, 5] of the same compound?
**A.** 1.32 ± 2.64%

**Q.** What about the Cl_F [1, 5] of the same compound?
**A.** 154 ± 76.5 mL/min/kg

**Q.** What about the Vz_F [1, 5] of the same compound?
**A.** 28.42 ± 13.10 L/kg

**Q.** And the “AUC % Extrap” value [1, 6]?
**A.** 4.72 ± 4.49%

**Q.** What about the Cl_F [1, 6] of the same compound?
**A.** 405.8 ± 204.3 mL/min/kg

**Q.** What about the Vz_F [1, 6] of the same compound?
**A.** 129.96 ± 81.45 L/kg

**Q.** And the “AUC % Extrap” value [1, 7]?
**A.** 2.05 ± 0.35 %

**Q.** What about the Cl_F [1, 7] of the same compound?
**A.** 124 ± 23 mL/min/kg

**Q.** And the Vz_F [1, 7]?
**A.** 45.95 ± 8.11 L/kg

**Q.** What about the “AUC % Extrap” value [1, 8] of the same compound?
**A.** 0.68 ± 0.89 %

**Q.** What about the Cl_F [1, 8] of the same compound?
**A.** 219.2 ± 72.5 mL/min/kg

**Q.** And the Vz_F [1, 8]?
**A.** 55.47 ± 25.73 L/kg

**Q.** What about the “% AUC0-last test vs reference” value ([1]; Group 3 (24 mg/kg 2HCl ORA-plus) vs Group 9 (24 mg/kg 2HCl SyrSpend)) of the same compound?
**A.** 109.55%

**Q.** And the “% AUC0-last test vs reference” value ([1]; Group 4 (48 mg/kg 2HCl ORA-plus) vs Group 10 (48 mg/kg 2HCl SyrSpend))?
**A.** 73.71%

**Q.** What about the “% AUC0-last test vs reference” value ([1]; Group 9 (24 mg/kg 2HCl SyrSpend) vs Group 10 (48 mg/kg 2HCl SyrSpend)) of the same compound?
**A.** 13.71%

**Q.** What about the “% AUC0-last test vs reference” value ([1]; Group 9 (24 mg/kg 2HCl SyrSpend) vs Group 11 (60 mg/kg 2HCl SyrSpend)) of the same compound?
**A.** 24.05%

**Q.** And the “% AUC0-last test vs reference” value ([1]; Group 10 (48 mg/kg 2HCl SyrSpend) vs Group 11 (60 mg/kg 2HCl SyrSpend))?
**A.** 175.45%

**Q.** And the AUC(0-inf) [1, 9]?
**A.** 1340 ± 678 ng·h/mL

**Q.** And the AUC(0-t) [1, 9]?
**A.** 1290 ± 666 ng·h/mL

**Q.** What about the Cmax [1, 9] of the same compound?
**A.** 407 ± 278 ng/mL

**Q.** And the Tmax [1, 9]?
**A.** 1.6 ± 0.55 h

**Q.** And the half-life [1, 9]?
**A.** 2.34 ± 1.76 h

**Q.** And the AUC(0-inf) [1, 10]?
**A.** 1240 ± 717 ng·h/mL

**Q.** And the AUC(0-t) [1, 10]?
**A.** 1180 ± 688 ng·h/mL

**Q.** And the AUC(0-t) ([1]; Sprague Dawley, 48 mg/kg, G10: 2HCl, 48 mg/kg single oral dose, SyrSpend)?
**A.** 8580 ± 2220 ng·h/mL

**Q.** What about the AUC(0-inf) ([1]; Sprague Dawley, 48 mg/kg, G10: 2HCl, 48 mg/kg single oral dose, SyrSpend, n = 2) of the same compound?
**A.** 6560 ± 1220 ng·h/mL

**Q.** What about the AUC(0-t) ([1]; Sprague Dawley, 60 mg/kg, G11: 2HCl, 60 mg/kg single oral dose, SyrSpend) of the same compound?
**A.** 4890 ± 1310 ng·h/mL

**Q.** And the AUC(0-inf) ([1]; Sprague Dawley, 60 mg/kg, G11: 2HCl, 60 mg/kg single oral dose, SyrSpend, n = 4)?
**A.** 4950 ± 1780 ng·h/mL

**Q.** And the Cmax [1, 11]?
**A.** 270 ± 184 ng/mL

**Q.** And the Tmax [1, 11]?
**A.** 1.2 ± 0.45 h

**Q.** What about the half-life [1, 11] of the same compound?
**A.** 3.41 ± 1.24 h

**Q.** And the AUC(0-inf) [1, 12]?
**A.** 6370 ± 3170 ng·h/mL

**Q.** And the AUC(0-t) [1, 12]?
**A.** 6320 ± 3210 ng·h/mL

**Q.** What about the Cmax [1, 12] of the same compound?
**A.** 1120 ± 429 ng/mL

**Q.** And the Tmax [1, 12]?
**A.** 2.2 ± 1.1 h

**Q.** What about the half-life [1, 12] of the same compound?
**A.** 2.18 ± 0.35 h

**Q.** And the Cmax [1, 13]?
**A.** 1140 ± 311 ng/mL

**Q.** And the Tmax [1, 13]?
**A.** 4 ± 1.41 h

**Q.** And the half-life ([1]; Sprague-Dawley, 48 mg/kg, G10: 2HCl, 48 mg/kg single oral dose, SyrSpend, n = 2)?
**A.** 4.28 ± 0.04 h

**Q.** What about the Cmax [1, 14] of the same compound?
**A.** 825 ± 247 ng/mL

**Q.** And the Tmax [1, 14]?
**A.** 2.6 ± 1.34 h

**Q.** What about the half-life ([1]; Sprague-Dawley, 60 mg/kg, G11: 2HCl, 60 mg/kg single oral dose, SyrSpend, n = 4) of the same compound?
**A.** 2.84 ± 0.83 h

**Q.** What about the “Particle size distribution d10” value [2, 15] of the same compound?
**A.** 12.0 μm

**Q.** What about the “Particle size distribution d50” value [2, 15] of the same compound?
**A.** 42.8 μm

**Q.** And the “Particle size distribution d90” value [2, 15]?
**A.** 131.6 μm

**Q.** What about the “Particle size distribution d10” value [2, 16] of the same compound?
**A.** 8.4 μm

**Q.** What about the “Particle size distribution d50” value [2, 16] of the same compound?
**A.** 23.0 μm

**Q.** And the “Particle size distribution d90” value [2, 16]?
**A.** 57.7 μm

**Q.** What about the “Particle size distribution d10” value [2, 17] of the same compound?
**A.** 11.6 μm

**Q.** What about the “Particle size distribution d50” value [2, 17] of the same compound?
**A.** 35.7 μm

**Q.** What about the “Particle size distribution d90” value [2, 17] of the same compound?
**A.** 98.3 μm

**Q.** And the “Particle size distribution d10” value [2, 18]?
**A.** 1.9 μm

**Q.** What about the “Particle size distribution d50” value [2, 18] of the same compound?
**A.** 3.9 μm

**Q.** What about the “Particle size distribution d90” value [2, 18] of the same compound?
**A.** 8.0 μm

**Q.** What about the “Particle size distribution d10” value [2, 19] of the same compound?
**A.** 11.0 μm

**Q.** And the “Particle size distribution d50” value [2, 19]?
**A.** 33.1 μm

**Q.** And the “Particle size distribution d90” value [2, 19]?
**A.** 83.0 μm

**Q.** What about the “Particle size distribution d10” value [2, 20] of the same compound?
**A.** 3.1 μm

**Q.** And the “Particle size distribution d50” value [2, 20]?
**A.** 7.9 μm

**Q.** What about the “Particle size distribution d90” value [2, 20] of the same compound?
**A.** 17.3 μm

**Q.** And the “Particle size distribution d10” value [2, 21]?
**A.** 2.3 μm

**Q.** What about the “Particle size distribution d50” value [2, 21] of the same compound?
**A.** 5.6 μm

**Q.** What about the “Particle size distribution d90” value [2, 21] of the same compound?
**A.** 11.7 μm

**Q.** What about the “Particle size distribution d10” value [2, 22] of the same compound?
**A.** 2.0 μm

**Q.** And the “Particle size distribution d50” value [2, 22]?
**A.** 4.8 μm

**Q.** And the “Particle size distribution d90” value [2, 22]?
**A.** 10.1 μm

**Q.** What about the solubility [3] of the same compound?
**A.** 20 to 25 mg/mL
